In US5502202A, “Aminoalkylthiazole derivative” (Taisho Pharmaceutical Co., Ltd., priority 1991, dated 1996):
Counter-ions that a name gives are not always drawn.

Columns and labels:
dopamine D2 receptor [1] = biological target: dopamine D2 receptor (Rattus norvegicus, UniProt P61169); experiment: biochemical; format: binding, rat (male Wistar); details: for IC50: 2 nM [3H](-)-sulpiride, rat striata membrane, pH 7.7, 37° C., 10 min; for inhibition at 1 µM: pH 7.7, read-out: Dopamine D2 receptor Inhibition % (1 μM)
dopamine D2 receptor (Rattus norvegicus, UniProt P61169), sequence (P61169 whole entry): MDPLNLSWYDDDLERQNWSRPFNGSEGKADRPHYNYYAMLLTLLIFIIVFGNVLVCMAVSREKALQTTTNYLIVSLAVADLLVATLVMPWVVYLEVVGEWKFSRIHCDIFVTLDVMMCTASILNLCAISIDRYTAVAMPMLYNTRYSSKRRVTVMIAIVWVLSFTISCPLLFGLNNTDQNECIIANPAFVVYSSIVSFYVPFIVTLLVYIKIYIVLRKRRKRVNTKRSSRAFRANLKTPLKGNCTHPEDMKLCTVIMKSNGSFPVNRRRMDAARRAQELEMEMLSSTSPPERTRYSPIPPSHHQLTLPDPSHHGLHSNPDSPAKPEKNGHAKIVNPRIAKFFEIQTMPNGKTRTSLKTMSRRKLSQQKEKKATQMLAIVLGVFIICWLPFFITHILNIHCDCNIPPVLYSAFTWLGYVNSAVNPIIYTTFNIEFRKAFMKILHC
Procedure: (§1) Male Wistar rats were employed as test animals.
(§2) Radiolabeled ^3 H! […] (-)-sulpiride was used as a compound specifically binding to dopamine D2 receptor.
(§3) Reactions of these ^3 H! compounds binding to the corresponding receptors were performed respectively in accordance with the following methods (1) and (2) described in Molecular Pharmacology, 32, 772 (1987), Journal of Pharmacy and Pharmacology, 32, 441 (1980) and Molecular Pharmacology, 32, 820 (1987).
(2) ^3 H! (-)-sulpiride binding:
(-)-sulpiride and a test drug were incubated in 1 ml of a 50 mM Tris-HCl buffer solution (pH 7.7) at 37° C. for 10 minutes.
(§4) After the completion of each reaction, the reaction mixture was filtered with suction into a glass filter (GF/B) and the radioactivity of the filter paper was measured with a liquid scintillation spectrometer.
(§5) (-)-sulpiride, and the difference between the total binding (the value measured by adding no test drug) and the nonspecific binding was referred to as the specific binding.
(§6) By reacting the ^3 H! compound at a definite concentration (2 nM) with the test drugs at various concentrations under the conditions as specified in the above (1) and (2), inhibition curves were obtained. On the basis of these inhibition curves, the concentration of each test drug causing 50% inhibition of the specific binding (IC50) was determined.

sigma receptor [2] = biological target: sigma receptor (Rattus norvegicus, UniProt Q9R0C9); experiment: biochemical; format: binding, rat (male Wistar); details: for IC50: 2 nM [3H](+)-3-PPP, rat whole brain membrane, pH 8.0, 21° C., 90 min; for inhibition at 1 µM: pH 8, read-out: Sigma receptor Inhibition % (1 μM)
sigma receptor (Rattus norvegicus, UniProt Q9R0C9), sequence (Q9R0C9 whole entry): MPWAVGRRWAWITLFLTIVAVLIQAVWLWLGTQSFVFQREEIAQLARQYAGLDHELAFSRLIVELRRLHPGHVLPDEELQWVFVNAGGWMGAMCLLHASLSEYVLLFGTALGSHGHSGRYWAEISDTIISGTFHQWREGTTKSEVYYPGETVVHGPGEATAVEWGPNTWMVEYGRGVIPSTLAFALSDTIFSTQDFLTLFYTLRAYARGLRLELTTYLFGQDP
Procedure: as §1, §2, §3, §4, §5, §6

[3] = tested on: (+)-SKF 10047-induced stereotypical behavior; experiment: Test on action on (+)-SKF 10047-induced abnormal (stereotypical) behaviors; format: in vivo, mouse (male ICR); details: Mus musculus; oral, 30 min (35 min for drug C) before 30 mg/kg i.p. (+)-SKF 10047; scores over 40 min; read-out: ED25 (stereotypical behavior suppression)
Procedure: TEST EXAMPLE 2 Test on Action on (+)-[…] Abnormal Behaviors! Male ICR mice (Nippon Charles River) aged 4 to 5 weeks were divided into groups each having 10 animals and used. Each animal was separately fed in a small transparent cage and fully familiarized with its environment. To the animals, test drugs […] % gum arabic at various concentrations were orally administered. […] Since 10 minutes thereafter, stereotypical behavior scores were measured for 40 minutes at intervals of 5 minutes. (Test drug) (Stereotypical behavior score) 0: normal behaviors 1: sniffing, standing up 2: discontinuous movement, sniffing stronger than 1 3: circling, moving backward 4: continuous circling 5: bending and stretching of limbs, head and neck The stereotypical behavior suppression ratio was determined on the basis of the sum of the scores of the test groups measured 8 times within 40 minutes by referring the sum of the score of a solvent (distilled water for injection) administered-group measured 8 times within 40 minutes as to 100%. Each ED25 value was calculated by determining the slope of a line of the suppression ratio formed by the method of least squares.

dopamine D2 receptor [4] = details: rimcazole, cited; value for [3H] spiperone binding; cited from earlier work
sigma receptor [5] = details: rimcazole, cited from European Journal of Pharmacology, 155, 345 (1988); cited from earlier work
dopamine autoreceptor = details: reported in literature, cited from earlier work

Row | SMILES | IC50 (sigma receptor [2]) | inhibition at 1 µM (sigma receptor [2]) | ED25 [3] | other results
1 | CCCCCCN(CCCCCC)CCc1sc(N)nc1-c1ccc(Br)cc1.Cl.Cl [Test Drug B (Table 1), 2-Amino-4-(4-bromophenyl)-5-(2-di-n-hexylaminoethyl)thiazole dihydrochloride] | 1.6 nM | 100% | 0.019 mg/kg | IC50 (dopamine D2 receptor [1]): > 1000 nM; inhibition at 1 µM (dopamine D2 receptor [1]): -33.3%
2 | CCCN1CCCC(c2cccc(O)c2)C1 (single isomer, unassigned) [3-PPP, 3-(3-hydroxyphenyl)-N-n-propylpiperidine, reference compound] | 24.3 nM | – | – | –
3 | C[C@@H]1CN(CCCn2c3ccccc3c3ccccc32)C[C@H](C)N1 [Rimcazole] | – | – | 37.9 mg/kg | IC50 (dopamine D2 receptor [4]): 86000 nM; IC50 (sigma receptor [5]): 1460 nM
4 | CCCCCCCCN(CCCCCCCC)CCc1sc(N)nc1-c1ccc(Br)cc1 [Test Drug C (Table 1), 2Amino-4-(4-bromophenyl)-5-(2-di-n-octylaminoethyl)-thiazole dihydrochloride] | 3.2 nM | 99.7% | – | IC50 (dopamine D2 receptor [1]): > 1000 nM; inhibition at 1 µM (dopamine D2 receptor [1]): -31%
5 | CCCCCN(CCCCC)CCc1sc(N)nc1-c1ccc(Br)cc1 [Test Drug A (Table 1), 2Amino-4-(4-bromophenyl)-5-(2-di-n-pentylaminoethyl)-thiazole dihydrochloride] | 8.7 nM | 93.1% | – | –
6 | OC(CCCN1CCN(c2ncc(F)cn2)CC1)c1ccc(F)cc1 (stereo not drawn) [BMY 14802] | – | – | 7.6 mg/kg | –
7 | C=CCN1CCc2nc(N)sc2CC1 [talipexole] | – | – | – | effect on dopamine nerve system (in words) (dopamine autoreceptor; by stimulating the presynaptic autoreceptor): suppresses nerve ignition and biosynthesis and liberation of dopamine; selective dopamine autoreceptor agonism (in words) (dopamine autoreceptor): selective dopamine autoreceptor agonist
